Source: US5371096A, “(3-pyridyl)tetrafuran-2-yl substituted carboxylic acids” (Ciba-Geigy Corporation, priority 1993, dated 1994)

Tests used:
thromboxane-A2 receptor [1] = biological target: T1, thromboxane-A2 receptor (Homo sapiens, UniProt P21731); experiment: inhibition of U-46619 induced aggregation in human platelet rich plasma; assay type: cell-based; details: in vitro
T1 sequence (P21731 1-343): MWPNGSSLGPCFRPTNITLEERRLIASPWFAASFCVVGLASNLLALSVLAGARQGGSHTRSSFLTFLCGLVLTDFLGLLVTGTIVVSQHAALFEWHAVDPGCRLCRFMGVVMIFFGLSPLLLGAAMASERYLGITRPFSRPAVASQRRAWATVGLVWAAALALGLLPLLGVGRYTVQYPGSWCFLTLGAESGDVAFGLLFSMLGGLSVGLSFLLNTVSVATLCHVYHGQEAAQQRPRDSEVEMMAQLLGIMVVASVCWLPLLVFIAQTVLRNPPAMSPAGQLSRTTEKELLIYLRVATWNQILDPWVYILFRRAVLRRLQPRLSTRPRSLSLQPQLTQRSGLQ
Description: (§1) The inhibition of thromboxane-A2 receptor activity is determined by measuring the inhibition of U-46619 induced platelet aggregation of aspirinated human washed platelets and in human platelet rich plasma. U-46619 is (15S)-hydroxy-11-α,9-α(epoxymethanol)-prosta-(5Z,13E)-dienoic acid, a throm boxane-A2 receptor agonist, as described by Di Minno et at, Thromb. Haemost. 45, 103 (1981).
(§2) Such inhibition of platelet aggregation is determined using methodology known in the art, e.g. in vitro in the presence of a compound of the invention in human platelet rich plasma, or by measuring the inhibition of aggregation seen in plasma obtained from a mammal previously administered a compound of the invention, e.g. orally or intravenously when compared to controls. Platelet aggregation is measured in a Born aggregometer and platelet rich plasma is prepared from venous blood e.g. as described in Br. J. Haematol. 43, 637 (1979). Suitable test animals are anesthetized rats or guinea pigs and unanesthetized rabbits or cyanomolgus monkeys.

[2] = tested on: U46619-induced platelet aggregation; experiment: inhibition of U46619-induced platelet aggregation after oral dosing in guinea pigs; assay type: in vivo, guinea pig
Description: as §2

[3] = tested on: U46619-induced ex vivo platelet aggregation; experiment: U46619-induced ex vivo platelet aggregation after oral dosing in cyanomolgus monkeys; parameters: species or system cyanomolgus monkey; details: 30 mg/kg
Description: as §2

thromboxane synthetase = experiment: serum thromboxane B2, 6-keto-PGF1α and PGE2 levels after oral dosing in cyanomolgus monkeys; assay type: in vivo, cyanomolgus monkey; details: 30 mg/kg
thromboxane-A2 receptor [4] = biological target: T1, thromboxane-A2 receptor; experiment: inhibition of U-46619-induced aggregation of aspirinated washed human platelets; assay type: cell-based; parameters: U-46619 induced platelet aggregation of aspirinated human washed platelets and in human platelet rich plasma; endogenous in cells; host or cells: human platelets (aspirinated washed platelets in A1; platelet rich plasma in A2); details: in vitro
Description: Acad. Sci. 76, 4097 (1979).
as §1

[5] = concomitant with serum thromboxane B2 inhibition

| IC50 (thromboxane-A2 receptor [1]) [nM] | IC50 (thromboxane-A2 receptor [4]) [nM] | SMILES | inhibition of U46619-induced platelet aggregation 1 hour post dose ([2]; conscious guinea pigs, oral, 0.3 mg/kg, 1 hour post dose) | increase of the concentration of thromboxane-mimetic required to induce 50% maximal aggregation ([2]; guinea pigs, oral dose of 0.23 mg/kg) [fold] | duration of total inhibition of U46619-induced ex vivo platelet aggregation [3] | time of return of ex vivo platelet aggregation to predose values [3] [h] | inhibition of U46619-induced ex vivo platelet aggregation ([3]; for at least 8 hours) | duration of inhibition of serum thromboxane B2 (thromboxane synthetase) [h] | 6-keto-PGF1α level (thromboxane synthetase; [5]) | PGE2 level (thromboxane synthetase; [5]) |
| --- | --- | --- | --- | --- | --- | --- | --- | --- | --- | --- |
| 250 | 26.5 | O=C(O)CC/C=C\CC[C@@H]1[C@@H](OCc2ccc(-c3ccccc3)cc2)CO[C@@H]1c1cccnc1 [Example 1, (Z)-(2S,3S,4R)-7-[4-(1,1'-biphenyl-4-ylmethoxy)-2-(3-pyridyl)tetrahydrofuran-3-yl]-4-heptenoic acid] | effectively inhibits | 50 | at least 8 hours | 24 | totally inhibited | 24 | elevations | elevations |
| ~400 | 28 | O=C(O)CCC=CCCC1C(OCc2ccc(-c3ccccc3)cc2)COC1c1cccnc1 (stereo not drawn) [Example 8(a), (Z)-(2α,3β,4β)-7-[4-(biphenyl-4-yl-methoxy)-2-(3-pyridyl)tetrahydrofuran-3-yl)hept-4-enoic acid] |  |  |  |  |  |  |  |  |
